According to paper PMC9736374, “Design, Synthesis and Antimicrobial Properties of New Tetracyclic Quinobenzothiazine Derivatives” (International Journal of Molecular Sciences, 2022):

What was measured:
[1] = system: methicillin-resistant S. aureus 63718 (MRSA3); test: MBC, agar aliquot subculture method; type: cell-based; details: Staphylococcus aureus; MRSA3 = 63718
[2] = system: Mycobacterium marinum CAMP 5644; test: In vitro antimycobacterial MIC, broth dilution micro-method; type: cell-based; details: CAMP5644, 504 h; MM = Mycobacterium marinum CAMP 5644; 21 days, 28 °C
[3] = system: vancomycin-resistant E. faecalis VRE 342B (VRE1); test: MIC, microtitration broth method; type: cell-based, Enterococcus faecalis; details: VRE1 = VRE 342B; 24 h, 37 °C
[4] = Lipophilicity by RP-TLC; type: physicochemical; details: Tris buffer pH 7.4/acetone, read-out: logPTLC
Experimental: The lipophilicity parameters were determined experimentally using reverse phase thin-layer chromatography (RP-TLC). Chromatograms were prepared on RP-18F254s plates (1.05559.0001, Merck, Germany) precoated with nonpolar silicone oil. Plates were developed in glass chromatography chambers previously saturated with vapor of mobile phase. The mobile phase was composed of 0.2M Tris buffer (pH = 7.4) and acetone in different concentrations, i.e., 50%, 60%, 70%, 80 and 90%. The chromatograms were visualised in UV light (λ = 254 nm). Determination of the RF coefficient was carried out twice for all compounds; in all cases, acetone concentrations used. The final value of RF is the mean of the two measurements. The obtained RF coefficient was used to calculate the value of the RM parameter according to the equation: RM = log [(1/RF) − 1]. By extrapolating RM values to zero acetone concentration, a relative RM0 lipophilicity parameter was obtained, according to the equation: RM = RM0 + bC, where b is slope and C is concentration of acetone in mobile phase. Based on RM0 and the calibration curve, the values of logPTLC for compounds 6a–l were determined. The calibration curve was calculated using the relationship between RM0 of the standard molecules (acetanilide, p-kresol, p-bromoacetophenone, benzophenone, anthracene) and the corresponding logP parameters specified by the extraction method, respectively. RM0 parameters of the standard molecules and quinobenzothiazine derivatives 6a–l were determined in the same empirical conditions.

[5] = system: Enterococcus faecalis ATCC 29212; test: MBC, agar aliquot subculture method; type: cell-based; details: ATCC29212; EF = Enterococcus faecalis
[6] = system: methicillin-resistant S. aureus 63718 (MRSA3); test: MIC, microtitration broth method; type: cell-based; details: Staphylococcus aureus; MRSA3 = 63718; 24 h, 37 °C
[7] = system: vancomycin-resistant E. faecalis VRE 368 (VRE2); test: MBC, agar aliquot subculture method; type: cell-based, Enterococcus faecalis; details: VRE2 = VRE 368
[8] = system: Staphylococcus aureus ATCC 29213; test: MBC, agar aliquot subculture method; type: cell-based; details: ATCC29213; SA = Staphylococcus aureus ATCC 29213
[9] = system: methicillin-resistant S. aureus SA 630 (MRSA2); test: MBC, agar aliquot subculture method; type: cell-based; details: Staphylococcus aureus; MRSA2 = SA 630
[10] = system: vancomycin-resistant E. faecalis VRE 725B (VRE3); test: MIC, microtitration broth method; type: cell-based, Enterococcus faecalis; details: VRE3 = VRE 725B; 24 h, 37 °C
[11] = system: normal human dermal fibroblasts (NHDF); test: In vitro cell viability, WST-1 assay; type: cell-based; details: 72 h
Experimental: Compounds were evaluated for their antiproliferative activity using NHDF (normal human dermal fibroblasts, ATCC, Manassas, VA, USA). The cultured cells were kept at 37 °C and 5% CO2. The cells were seeded (1 × 10^4 cells/well/100 μL DMEM supplemented with 10% FCS and streptomycin/penicillin) into 96-well plates (Corning Inc., Corning, NY, USA). Cells were counted using a hemocytometer (Burker chamber) and phase contrast Olympus IX50 microscope equipped with Sony SSC-DC58 AP camera and Olympus DP10 digital camera. The cell viability of the compounds was determined using the Cell Proliferation Reagent WST-1 assay (Roche Molecular Biochemicals, Mannheim, Germany). The examined cells were exposed to the tested compounds (1 mg/mL DMSO stock) for 72 h at various concentrations (0.1–100 μg/mL). The control was included in order to eliminate the DMSO effect at the concentration used. Cell cultures were incubated with WST-1 (10 μL) for 1 h. The absorbance of the samples was measured against a background control at 450 nm using a microplate reader with a reference wavelength at 600 nm. The obtained results are expressed as means of at least two independent experiments performed in triplicate.

[12] = system: S. aureus; test: Crystal violet uptake (membrane permeability); type: cell-based, Staphylococcus aureus; details: 4× MIC, 1 h; compared to growth control and 1% Tween 20
Experimental: Phenothiazines are also known for their ability to interact with and damage the cell wall, which has fatal consequences for the microorganism. Therefore, the bacterial suspensions were treated by compounds 6a, 6e, 6g, 6j and 6k (4× MIC) for 1 h. The uptake of crystal violet was expressed as a percentage compared to the original crystal violet solution.

[13] = system: vancomycin-resistant E. faecalis VRE 725B (VRE3); test: MBC, agar aliquot subculture method; type: cell-based, Enterococcus faecalis; details: VRE3 = VRE 725B
[14] = system: methicillin-resistant S. aureus SA 3202 (MRSA1); test: MIC, microtitration broth method; type: cell-based; details: Staphylococcus aureus; MRSA1 = SA 3202; 24 h, 37 °C
[15] = system: vancomycin-resistant E. faecalis VRE 342B (VRE1); test: MBC, agar aliquot subculture method; type: cell-based, Enterococcus faecalis; details: VRE1 = VRE 342B
[16] = system: S. aureus ATCC 29213 respiratory activity; test: MTT assay of bacterial respiration; type: cell-based, Staphylococcus aureus; details: for Conc.: corresponding multiple of MBC with at least 70% inhibition of respiratory activity / Conc.: lowest multiple of MIC with at least 70% inhibition of respiratory activity: S. aureus ATCC 29213, MTT, 24 h; for Decrease in viability < 70% at MIC value (MTT): S. aureus ATCC 29213, at MIC; for S. aureus Respiration Inhibition: at the concentration given
[17] = system: vancomycin-resistant E. faecalis VRE 368 (VRE2); test: MIC, microtitration broth method; type: cell-based, Enterococcus faecalis; details: VRE2 = VRE 368; 24 h, 37 °C
[18] = system: methicillin-resistant S. aureus SA 3202 (MRSA1); test: MBC, agar aliquot subculture method; type: cell-based; details: Staphylococcus aureus; MRSA1 = SA 3202
[19] = system: Enterococcus faecalis ATCC 29212; test: MIC, microtitration broth method; type: cell-based; details: ATCC29212; EF = Enterococcus faecalis; 24 h, 37 °C
[20] = system: Staphylococcus aureus ATCC 29213; test: MIC, microtitration broth method; type: cell-based; details: ATCC29213; SA = Staphylococcus aureus ATCC 29213; 24 h, 37 °C
[21] = system: methicillin-resistant S. aureus SA 630 (MRSA2); test: MIC, microtitration broth method; type: cell-based; details: Staphylococcus aureus; MRSA2 = SA 630; 24 h, 37 °C
[22] = system: M. smegmatis ATCC 700084; test: In vitro antimycobacterial MIC, broth dilution micro-method; type: cell-based, Mycobacterium smegmatis; details: Mycolicibacterium smegmatis, ATCC700084, 72 h; MS = M. smegmatis ATCC 700084; 3 days, 37 °C

| Compound | MBC [1] [µM] | MIC [2] [µM] | MIC [3] [µM] | chromatographic logP [4] | MBC [5] [µM] | MIC [6] [µM] | MBC [7] [µM] | MBC [8] [µM] | MBC [9] [µM] | MIC [10] [µM] | IC50 [11] [µM] | Effect on plasma membrane permeability (uptake of crystal violet) [12] | MBC [13] [µM] | MIC [14] [µM] | MBC [15] [µM] | Conc.: corresponding multiple of MBC with at least 70% inhibition of respiratory activity [16] | Conc.: lowest multiple of MIC with at least 70% inhibition of respiratory activity [16] | Decrease in viability < 70% at MIC value (MTT) [16] | S. aureus Respiration Inhibition [16] [%] | MIC [17] [µM] | other results |
| --- | --- | --- | --- | --- | --- | --- | --- | --- | --- | --- | --- | --- | --- | --- | --- | --- | --- | --- | --- | --- | --- |
| C=CCOc1ccc2c(c1)Nc1c(c[n+](C)c3ccccc13)S2 [Compound 6e, 10-allyloxy-5-methyl-12H-quino[3,4-b][1,4]benzothiazinium chloride] | 22.4 | 11.2 | 179 | 2.47 | 89.6 | 22.4 | 179 | 44.8 | 44.8 | 89.6 | > 100 | did not affect plasma membrane permeability | 89.6 | 44.8 | 179 | 2× MIC (2× MBC) | 2× MIC (2× MBC) | did not show a decrease in viability < 70% | 97.4 | 179 | MBC [18]: 44.8 µM; MIC [19]: 89.6 µM; MIC [20]: 44.8 µM; MIC [21]: 44.8 µM; MIC [22]: 22.4 µM |
| CCCOc1ccc2c(c1)Sc1c[n+](C)c3ccccc3c1N2 [Compound 6a, 9-propoxy-5-methyl-12H-quino[3,4-b][1,4]benzothiazinium chloride] | 11.1 | 22.3 | 89.1 | 1.65 | 89.1 | 11.1 | 89.1 | 22.3 | 22.3 | 89.1 | > 100 | did not affect plasma membrane permeability | 178 | 22.3 | 89.1 | 2× MIC (2× MBC) | 2× MIC (2× MBC) | did not show a decrease in viability < 70% | 97.7 | 89.1 | MBC [18]: 22.3 µM; MIC [19]: 89.1 µM; MIC [20]: 22.3 µM; MIC [21]: 22.3 µM; MIC [22]: 22.3 µM |
| C#CCOc1ccc2c(c1)Sc1c[n+](C)c3ccccc3c1N2 [Compound 6g, 9-propargyloxy-5-methyl-12H-quino[3,4-b][1,4]benzothiazinium chloride] | 45.1 | 11.3 | 90.1 | 2.11 | 90.1 | 45.1 | 90.1 | 45.1 | 45.1 | 90.1 | > 100 | did not affect plasma membrane permeability | 90.1 | 45.1 | 90.1 | 2× MIC (2× MBC) | 2× MIC (2× MBC) | did not show a decrease in viability < 70% | 96.8 | 90.1 | MBC [18]: 45.1 µM; MIC [19]: 90.1 µM; MIC [20]: 45.1 µM; MIC [21]: 45.1 µM; MIC [22]: 22.5 µM |
| C[n+]1cc2c(c3ccccc31)Nc1cc(OCc3ccccc3)ccc1S2 [Compound 6k, 10-benzyloxy-5-methyl-12H-quino[3,4-b][1,4]benzothiazinium chloride] | 9.83 | 19.7 | 78.6 | 3.48 | 78.6 | 9.83 | 157 | 19.7 | 19.7 | 157 | > 100 | did not affect plasma membrane permeability | 157 | 19.7 | 78.6 | 2× MIC (2× MBC) | 2× MIC (2× MBC) | did not show a decrease in viability < 70% | 97.6 | 157 | MBC [18]: 19.7 µM; MIC [19]: 78.6 µM; MIC [20]: 19.7 µM; MIC [21]: 9.83 µM; MIC [22]: 19.7 µM |
